Data as given in patent US20250340560A1, “SUBSTITUTED PYRAZOLO[1,5-a]PYRIMIDINES AS BRUTON'S TYROSINE KINASE MODULATORS” (BEIGENE SWITZERLAND GMBH, priority 2013, published 2025).
Where a name gives a salt, the structure may show the parent alone.

Biological target: Recombinant Btk (Homo sapiens (Human), UniProt Q06187)
Test: BTK kinase assay (TR-FRET)
Details: read-out: IC50 (nM) Btk; 1 hour pre-incubation, ATP at Km

Chain of Recombinant Btk (Q06187 whole entry): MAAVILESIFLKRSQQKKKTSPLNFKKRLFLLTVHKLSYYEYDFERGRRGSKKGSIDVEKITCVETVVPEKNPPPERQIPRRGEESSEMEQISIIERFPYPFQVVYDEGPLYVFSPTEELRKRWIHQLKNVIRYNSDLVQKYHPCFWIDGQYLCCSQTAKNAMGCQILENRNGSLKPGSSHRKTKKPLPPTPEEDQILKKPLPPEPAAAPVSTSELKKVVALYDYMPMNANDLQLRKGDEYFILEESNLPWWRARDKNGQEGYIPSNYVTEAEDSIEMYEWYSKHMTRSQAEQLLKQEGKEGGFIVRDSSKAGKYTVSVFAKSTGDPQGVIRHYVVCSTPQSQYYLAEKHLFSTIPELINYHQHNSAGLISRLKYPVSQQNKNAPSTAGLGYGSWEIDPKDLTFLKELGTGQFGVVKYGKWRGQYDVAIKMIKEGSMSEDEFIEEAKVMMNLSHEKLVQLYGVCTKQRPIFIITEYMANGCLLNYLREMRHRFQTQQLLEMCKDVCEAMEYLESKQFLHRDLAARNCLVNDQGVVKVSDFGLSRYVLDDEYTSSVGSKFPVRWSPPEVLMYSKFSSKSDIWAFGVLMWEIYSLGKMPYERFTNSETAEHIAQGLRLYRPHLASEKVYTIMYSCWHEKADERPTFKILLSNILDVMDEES

| Compound | IC50 [nM] |
| --- | --- |
| NC(=O)c1c(-c2ccc(Oc3ccccc3)cc2)nn2c1NCC1(CNC1)C2 [Compound 87, 2′-(4-Phenoxyphenyl)-5′,7′-dihydro-4′H-spiro[azetidine-3,6′-pyrazolo[1,5-a]pyrimidine]-3′-carboxamide] | 2000 |
| C=CC(=O)N1CC2(CNc3c(C(N)=O)c(-c4ccc(Oc5ccccc5)cc4)nn3C2)C1 [Compound 88, 1-Acryloyl-2′-(4-phenoxyphenyl)-5′,7′-dihydro-4′H-spiro[azetidine-3,6′-pyrazolo[1,5-a]pyrimidine]-3′-carboxamide] | 16 |
| NC(=O)c1c(-c2ccc(Oc3ccccc3)cc2)nn2c1NCC(c1ccccc1N)C2 (stereo not drawn) [Compound 89, 6-(2-Aminophenyl)-2-(4-phenoxyphenyl)-4,5,6,7-tetrahydropyrazolo[1,5-a]pyrimidine-3-carboxamide] | > 10000 |
| NC(=O)c1c(-c2ccc(Oc3ccccc3)cc2)nn2c1NCC(c1cccc(N)c1)C2 (stereo not drawn) [Compound 90, 6-(3-Aminophenyl)-2-(4-phenoxyphenyl)-4,5,6,7-tetrahydropyrazolo[1,5-a]pyrimidine-3-carboxamide] | 1900 |
| CN(C)CCOc1cccc(C2CNc3c(C(N)=O)c(-c4ccc(Oc5ccccc5)cc4)nn3C2)c1 (stereo not drawn) [Compound 91, 6-(3-(2-(Dimethylamino)ethoxy)phenyl)-2-(4-phenoxyphenyl)-4,5,6,7-tetrahydropyrazolo[1,5-a]pyrimidine-3-carboxamide] | 1900 |
| CN(C)C/C=C/C(=O)Nc1ccccc1C1CCNc2c(C(N)=O)c(-c3ccc(Oc4ccccc4)cc3)nn21 (stereo not drawn) [Compound 92, (E)-7-(2-(4-(dimethylamino)but-2-enamido)phenyl)-2-(4-phenoxyphenyl)-4,5,6,7-tetrahydropyrazolo[1,5-a]pyrimidine-3-carboxamide] | 1.1 |
| COc1ccc(-c2nn3c(c2C(N)=O)NCCC3c2ccccc2N)cc1 (stereo not drawn) [Compound 93, 7-(2-Aminophenyl)-2-(4-methoxyphenyl)-4,5,6,7-tetrahydropyrazolo[1,5-a]pyrimidine-3-carboxamide] | 1500 |
| NC(=O)c1c(-c2ccc(Oc3ccccc3)cc2)nn2c1NCCC2c1cc(N)ccc1Cl (stereo not drawn) [Compound 95, 7-(5-amino-2-chlorophenyl)-2-(4-phenoxyphenyl)-4,5,6,7-tetrahydropyrazolo[1,5-a]pyrimidine-3-carboxamide] | 470 |
| C=CC(=O)Nc1ccc(Cl)c(C2CCNc3c(C(N)=O)c(-c4ccc(Oc5ccccc5)cc4)nn32)c1 (stereo not drawn) [Compound 96, 7-(5-acrylamido-2-chlorophenyl)-2-(4-phenoxyphenyl)-4,5,6,7-tetrahydropyrazolo[1,5-a]pyrimidine-3-carboxamide] | 30 |
| C=CC(=O)Nc1cc(C2CCNc3c(C(N)=O)c(-c4ccc(Oc5ccccc5)cc4)nn32)ccc1Cl (stereo not drawn) [Compound 97, 7-(3-acrylamido-4-chlorophenyl)-2-(4-phenoxyphenyl)-4,5,6,7-tetrahydropyrazolo[1,5-a]pyrimidine-3-carboxamide] | 1.1 |
| NC(=O)c1c(-c2ccc(Oc3ccccc3)cc2)nn2c1NCCC2c1ccc(N)cc1 (stereo not drawn) [Compound 98, 7-(4-aminophenyl)-2-(4-phenoxyphenyl)-4,5,6,7-tetrahydropyrazolo[1,5-a]pyrimidine-3-carboxamide] | 77 |
| NC(=O)c1c(-c2ccc(Oc3ccccc3)cc2)nn2c1NCCC2c1ccncc1 (stereo not drawn) [Compound 100, 2-(4-phenoxyphenyl)-7-(pyridin-4-yl)-4,5,6,7-tetrahydropyrazolo[1,5-a]pyrimidine-3-carboxamide] | 260 |
| NC(=O)c1c(-c2ccc(Oc3ccccc3)cc2)nn2c1NCCC2c1cccnc1 (stereo not drawn) [Compound 101, 2-(4-phenoxyphenyl)-7-(pyridin-3-yl)-4,5,6,7-tetrahydropyrazolo[1,5-a]pyrimidine-3-carboxamide] | 550 |
| NC(=O)c1c(-c2ccc(Oc3ccccc3)cc2)nn2c1NCCC2c1ccccn1 (stereo not drawn) [Compound 102, 2-(4-phenoxyphenyl)-7-(pyridin-2-yl)-4,5,6,7-tetrahydropyrazolo[1,5-a]pyrimidine-3-carboxamide] | 830 |
| C=CC(=O)N1CCCC1C1CCNc2c(C(N)=O)c(-c3ccc(Oc4ccccc4)cc3)nn21 (stereo not drawn) [Compound 103, 7-(1-acryloylpyrrolidin-2-yl)-2-(4-phenoxyphenyl)-4,5,6,7-tetrahydropyrazolo[1,5-a]pyrimidine-3-carboxamide] | 1.1 |
| C=CC(=O)N1CC(C2CCNc3c(C(N)=O)c(-c4ccc(OCc5ccccc5)cc4)nn32)C1 (stereo not drawn) [Compound 104, 7-(1-acryloylazetidin-3-yl)-2-(4-(benzyloxy)phenyl)-4,5,6,7-tetrahydropyrazolo[1,5-a]pyrimidine-3-carboxamide] | 2.6 |
| C=CC(=O)N1CC(C2CCNc3c(C(N)=O)c(-c4ccc(OCc5ccccn5)cc4)nn32)C1 (stereo not drawn) [Compound 105, 7-(1-acryloylazetidin-3-yl)-2-(4-(pyridin-2-ylmethoxy)phenyl)-4,5,6,7-tetrahydropyrazolo[1,5-a]pyrimidine-3-carboxamide] | 18 |
| C=CC(=O)N1CC(C2CCNc3c(C(N)=O)c(-c4ccc(Oc5ccc(Cl)cc5)cc4)nn32)C1 (stereo not drawn) [Compound 106, 7-(1-acryloylazetidin-3-yl)-2-(4-(4-chlorophenoxy)phenyl)-4,5,6,7-tetrahydropyrazolo[1,5-a]pyrimidine-3-carboxamide] | 1.4 |

| Compound | IC50 [nM] |
| --- | --- |
| C=CC(=O)N1CC(C2CCNc3c(C(N)=O)c(-c4ccc(Oc5cccc(Cl)c5)cc4)nn32)C1 (stereo not drawn) [Compound 107, 7-(1-acryloylazetidin-3-yl)-2-(4-(3-chlorophenoxy)phenyl)-4,5,6,7-tetrahydropyrazolo[1,5-a]pyrimidine-3-carboxamide] | 0.48 |
| C=CC(=O)NCC1CCNc2c(C(N)=O)c(-c3ccc(OCc4ccccc4)cc3)nn21 (stereo not drawn) [Compound 111, 7-(acrylamidomethyl)-2-(4-(benzyloxy)phenyl)-4,5,6,7-tetrahydropyrazolo[1,5-a]pyrimidine-3-carboxamide] | 24 |
| NCC1CCNc2c(C(N)=O)c(-c3ccc(OCC4CC4)cc3)nn21 (stereo not drawn) [Compound 112, 7-(aminomethyl)-2-(4-(cyclopropylmethoxy)phenyl)-4,5,6,7-tetrahydropyrazolo[1,5-a]pyrimidine-3-carboxamide] | > 10000 |
| C=CC(=O)NCC1CCNc2c(C(N)=O)c(-c3ccc(OCC4CC4)cc3)nn21 (stereo not drawn) [Compound 113, 7-(acrylamidomethyl)-2-(4-(cyclopropylmethoxy)phenyl)-4,5,6,7-tetrahydropyrazolo[1,5-a]pyrimidine-3-carboxamide] | 94 |
| NC(=O)c1c(-c2ccc(Oc3ccccc3)cc2)nn2c1NCCC21CNC1 [Compound 118, 2′-(4-phenoxyphenyl)-5′,6′-dihydro-4′H-spiro[azetidine-3,7′-pyrazolo[1,5-a]pyrimidine]-3′-carboxamide] | 410 |
| C=CC(=O)N1CC2(CCNc3c(C(N)=O)c(-c4ccc(Oc5ccccc5)cc4)nn32)C1 [Compound 119, 1-acryloyl-2′-(4-phenoxyphenyl)-5′,6′-dihydro-4′H-spiro[azetidine-3,7′-pyrazolo[1,5-a]pyrimidine]-3′-carboxamide] | 40 |
| NC(=O)c1c(-c2ccc(Oc3ccccc3)cc2)nn2c3c([nH]c12)CCNCC3 [Compound 120] | 180 |
| CN(C)C/C=C/C(=O)N1CCc2[nH]c3c(C(N)=O)c(-c4ccc(Oc5ccccc5)cc4)nn3c2CC1 [Compound 122] | 0.78 |
| CN(C)C/C=C/C(=O)N1CCCc2[nH]c3c(C(N)=O)c(-c4ccc(Oc5ccccc5)cc4)nn3c2C1 [Compound 124, (E)-8-(4-(dimethylamino)but-2-enoyl)-2-(4-phenoxyphenyl)-4,5,6,7,8,9-hexahydropyrazolo[5′,1′:2,3]imidazo[4,5-c]azepine-3-carboxamide] | 0.62 |
| NC(=O)c1c(-c2ccc(OCc3ccccc3)cc2)nn2c3c([nH]c12)CCNC3 [Compound 125, 2-(4-(benzyloxy)phenyl)-5,6,7,8-tetrahydro-4H-pyrazolo[5′,1′:2,3]imidazo[4,5-c]pyridine-3-carboxamide formate] | 5000 |
| C=CC(=O)N1CCc2[nH]c3c(C(N)=O)c(-c4ccc(OCc5ccccc5)cc4)nn3c2C1 [Compound 126, 7-Acryloyl-2-(4-(benzyloxy)phenyl)-5,6,7,8-tetrahydro-4H-pyrazolo[5′,1′:2,3]imidazo[4,5-c]pyridine-3-carboxamide] | 20 |
| C=CC(=O)N1CCc2[nH]c3c(C(N)=O)c(-c4ccc(OCC5CC5)cc4)nn3c2C1 [Compound 127, 7-acryloyl-2-(4-(cyclopropylmethoxy)phenyl)-5,6,7,8-tetrahydro-4H-pyrazolo[5′,1′:2,3]imidazo[4,5-c]pyridine-3-carboxamide] | 300 |
| NC(=O)c1c(-c2ccc(Oc3ccccc3)cc2)nn2c1[nH]c1cc([N+](=O)[O-])ccc12 [Compound 128, 6-nitro-2-(4-phenoxyphenyl)-4H-benzo[4,5]imidazo[1,2-b]pyrazole-3-carboxamide] | 930 |
| NC(=O)c1c(-c2ccc(Oc3ccccc3)cc2)nn2c1[nH]c1cc(N)ccc12 [Compound 129] | 23 |
| NC(=O)c1c(-c2ccc(Oc3ccccc3)cc2)nn2c1[nH]c1cccc(N)c12 [Compound 131, 8-amino-2-(4-phenoxyphenyl)-4H-benzo[4,5]imidazo[1,2-b]pyrazole-3-carboxamide] | 170 |
| C=CC(=O)N1CC(C2CCNc3c(C(N)=O)c(-c4ccc(Oc5ccc(Cl)c(Cl)c5)cc4)nn32)C1 (stereo not drawn) [Compound 132, 7-(1-acryloylazetidin-3-yl)-2-(4-(3,4-dichlorophenoxy)phenyl)-4,5,6,7-tetrahydropyrazolo[1,5-a]pyrimidine-3-carboxamide] | 1.7 |
| C=CC(=O)N1CC(C2CCNc3c(C(N)=O)c(-c4ccc(Oc5ccccc5C#N)cc4)nn32)C1 (stereo not drawn) [Compound 135, 7-(1-acryloylazetidin-3-yl)-2-(4-(2-cyanophenoxy)phenyl)-4,5,6,7-tetrahydropyrazolo[1,5-a]pyrimidine-3-carboxamide] | 0.38 |
| C=CC(=O)Nc1ccccc1C1CCNc2c(C(N)=O)c(-c3ccc(F)c(F)c3)nn21 (stereo not drawn) [Compound 137, 7-(2-acrylamidophenyl)-2-(3,4-difluorophenyl)-4,5,6,7-tetrahydropyrazolo[1,5-a]pyrimidine-3-carboxamide] | 3.2 |
